Measurements published in PMC5038302 (Antimicrobial Agents and Chemotherapy, 2016).
“And” between values parts separate entries of the source, which are not always exact repeats. Equal entries are not always repeated. Where two headings read alike, the source gives them in different places.

Assays:
SPM-1 [1] = format: binding
Experimental: (§1) Typical experimental parameters for Carr-Purcell-Meiboom-Gill (CPMG) NMR spectroscopy were the following: total echo time, 40 ms; relaxation delay, 2 s; and number of transients, 264 ([31]). The PROJECT-CPMG sequence (90°x-[τ-180°y-τ-90°y-τ-180°y-τ]n-acq) was applied. Water suppression was achieved by presaturation. Prior to Fourier transformation, the data were multiplied with an exponential function with 3-Hz line broadening.
(§2) For ^1H excitation sculpting suppression with perfect echo NMR experiments, spectra were typically obtained using 256 scans and a relaxation delay of 1 s ([32]). A 2-ms sinc pulse was used for water suppression. Prior to Fourier transformation, data were multiplied with an exponential function with 2-Hz line broadening.
(§3) For water-ligand observed gradient spectroscopy (wLOGSY) analyses, typical experimental parameters were the following: mixing time, 1 s; relaxation delay, 2 s; number of transients, 256 ([33]). Solvent excitation was achieved using a 16-ms 180° selective rectangular shape pulse with 1,000 points (Squa100.1000) set at the H2O frequency. Water suppression was achieved by a 2-ms sinc pulse (Sinc1.1000) at the H2O frequency.

NDM-1 [2] = molecular target: T1, NDM-1 (Klebsiella pneumoniae, UniProt C7C422); assay: biochemical
T1 sequence (C7C422 43-270 limits assumed, looked up, species assumed): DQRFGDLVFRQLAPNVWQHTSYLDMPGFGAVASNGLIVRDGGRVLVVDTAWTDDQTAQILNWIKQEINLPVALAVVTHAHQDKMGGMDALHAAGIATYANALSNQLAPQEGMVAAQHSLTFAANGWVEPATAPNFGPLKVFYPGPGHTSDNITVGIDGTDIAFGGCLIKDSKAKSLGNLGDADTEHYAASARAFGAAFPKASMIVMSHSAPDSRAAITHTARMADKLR

VIM-4 [3] = molecular target: T2, VIM-4 (Pseudomonas aeruginosa, UniProt Q8KRJ3); conditions: VIM-4, 240 min, Raman spectroscopy
FEZ-1 [4] = molecular target: T3, FEZ-1 (Fluoribacter gormanii, UniProt Q9K578); format: binding, Fluoribacter (Legionella) gormanii; conditions: FEZ-1 80 μM, avibactam 4 mM, Tris-D11 50 mM pH 7.5
T3 sequence (Q9K578 21-282 limits assumed): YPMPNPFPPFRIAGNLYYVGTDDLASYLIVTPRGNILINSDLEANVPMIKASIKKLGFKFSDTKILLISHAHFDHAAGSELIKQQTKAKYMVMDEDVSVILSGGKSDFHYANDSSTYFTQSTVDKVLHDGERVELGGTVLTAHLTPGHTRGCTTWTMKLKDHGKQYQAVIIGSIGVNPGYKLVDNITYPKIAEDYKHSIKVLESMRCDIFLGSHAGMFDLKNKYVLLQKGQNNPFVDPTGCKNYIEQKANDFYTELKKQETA

NDM-1 [5] = molecular target: T1, NDM-1; format: binding; conditions: avibactam 4 mM, Tris-D11 50 mM pH 7.5
VIM-4 [6] = molecular target: T2, VIM-4; conditions: 1 mM avibactam (600 μl), 12 μg VIM-4, 5 mM HEPES pH 7.5, 20 μM ZnCl2, 4 h at 37°C
BcII = BcII (Bacillus cereus, UniProt P04190); format: binding; conditions: BcII 80 μM, avibactam 4 mM, Tris-D11 50 mM pH 7.5
Sequence of BcII (P04190 31-257): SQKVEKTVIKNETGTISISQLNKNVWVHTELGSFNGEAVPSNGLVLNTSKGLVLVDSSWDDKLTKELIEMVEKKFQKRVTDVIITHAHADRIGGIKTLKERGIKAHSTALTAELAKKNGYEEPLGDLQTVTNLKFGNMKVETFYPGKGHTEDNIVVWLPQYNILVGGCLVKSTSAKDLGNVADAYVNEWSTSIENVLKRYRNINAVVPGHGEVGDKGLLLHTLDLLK
Experimental: as §1, §2, §3

SPM-1 [7] = format: biochemical
CphA = CphA (Aeromonas hydrophila, UniProt P26918); format: binding; conditions: CphA 80 μM, avibactam 4 mM, Tris-D11 50 mM pH 7.5
Sequence of CphA (P26918 28-254): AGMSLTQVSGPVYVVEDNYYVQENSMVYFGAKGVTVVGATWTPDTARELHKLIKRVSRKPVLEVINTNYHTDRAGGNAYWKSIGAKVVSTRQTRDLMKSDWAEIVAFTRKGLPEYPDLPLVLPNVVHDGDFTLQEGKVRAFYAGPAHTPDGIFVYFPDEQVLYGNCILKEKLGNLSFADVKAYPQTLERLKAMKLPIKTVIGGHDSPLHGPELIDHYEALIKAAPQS

VIM-4 [8] = molecular target: T2, VIM-4; format: biochemical; conditions: read-out: Approximate Ki value (reflecting Km), from a single avibactam concentration (1 mM), ceftazidime 30 µM substrate
VIM-4 [9] = molecular target: T2, VIM-4; format: binding; conditions: VIM-4 80 μM, avibactam 4 mM, Tris-D11 50 mM pH 7.5
[10] = Stability of avibactam in buffer without enzyme (NMR control); conditions: buffer (Tris-D11 50 mM, pH 7.5)
IMP-1 [11] = molecular target: T4, IMP-1 (Serratia marcescens, UniProt P52699); assay: biochemical; conditions: Approximate Ki (= Km) value, from a single avibactam concentration (1 mM), ceftazidime 30 µM substrate
T4 sequence (P52699 19-246 limits assumed): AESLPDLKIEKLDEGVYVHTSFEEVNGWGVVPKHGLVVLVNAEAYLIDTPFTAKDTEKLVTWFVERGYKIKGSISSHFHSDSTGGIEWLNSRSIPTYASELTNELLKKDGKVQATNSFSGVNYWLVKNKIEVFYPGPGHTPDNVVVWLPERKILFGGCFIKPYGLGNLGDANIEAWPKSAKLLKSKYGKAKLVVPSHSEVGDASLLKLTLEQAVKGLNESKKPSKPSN

VIM-2 [12] = molecular target: T5, VIM-2 (Escherichia coli, UniProt Q5U7L7); format: binding; conditions: VIM-2 80 μM, avibactam 4 mM, Tris-D11 50 mM pH 7.5
VIM-4 [13] = molecular target: T2, VIM-4; conditions: still extremely slow by normal β-lactamase standards
NDM-1 [14] = molecular target: T1, NDM-1; conditions: NDM-1 0.022 mM; still extremely slow by normal β-lactamase standards
FEZ-1 [15] = molecular target: T3, FEZ-1; assay: biochemical; parameters: species or system Fluoribacter (Legionella) gormanii; conditions: Approximate Ki (= Km) value, from a single avibactam concentration (1 mM), ceftazidime 30 µM substrate
VIM-4 [16] = molecular target: T2, VIM-4; conditions: LC-MS
VIM-2 [17] = molecular target: T5, VIM-2; assay: biochemical
[18] = test system: all of the MBLs (VIM-2, VIM-4, SPM-1, NDM-1, IMP-1, FEZ-1); assay: Complete time courses of ceftazidime hydrolysis; format: biochemical; conditions: all MBLs incl. VIM-4; concluded from quasi first-order complete time courses, 5 mM HEPES pH 7.5
NDM-1 [19] = molecular target: T1, NDM-1; conditions: cited from earlier work
SPM-1 [20] = test system: SPM-1; parameters: method as in PMID 12543663; conditions: reported conditions different, read-out: ceftazidime Km; cited from earlier work
VIM-2 [21] = molecular target: T5, VIM-2; conditions: cited from earlier work
IMP-1 [22] = molecular target: T4, IMP-1; conditions: cited from earlier work
FEZ-1 [23] = molecular target: T3, FEZ-1; parameters: method as in PMID 11257043; conditions: reported conditions different, read-out: ceftazidime Km; cited from earlier work
[24] = test system: NC(=O)[C@@H]1CC[C@@H]2CN1C(=O)N2OS(=O)(=O)O; assay: purified protein, by the assay type

NC(=O)[C@@H]1CC[C@@H](NOS(=O)(=O)O)CN1 [hydrolyzed product(s)]
Binding of products of avibactam by wLOGSY NMR (SPM-1 [1]; SPM-1, hydrolyzed product NOE sign opposite to that of SPM-1 (free ligand)): no evidence for binding

NC(=O)[C@@H]1CC[C@@H]2CN1C(=O)N2OS(=O)(=O)O [avibactam]
Ki (NDM-1 [2]): > 5 mM
Amount of sulfate produced from avibactam (of the total avibactam product) (VIM-4 [3]): < 15%
Binding by 1H CPMG NMR (FEZ-1 [4]): weak binding
Binding by 1H CPMG NMR (NDM-1 [5]): weak binding
Avibactam hydrolyzed (from absorbance at 230 nm) (VIM-4 [6]): ~70%
Binding by 1H CPMG NMR (SPM-1 [1]; SPM-1 80 μM, avibactam 4 mM, Tris-D11 50 mM pH 7.5): weak binding
Binding by 1H CPMG NMR (BcII): did not observe binding
Effect of avibactam on SPM-1-catalyzed ceftazidime hydrolysis (SPM-1 [7]; 1 mM avibactam, ceftazidime 30 µM): apparent activation
Residual activity (SPM-1 [7]; ceftazidime (30 µM) in the presence of 1 mM avibactam, HEPES buffer, 30°C): 140 + 15%
Binding by 1H CPMG NMR (CphA): did not observe binding
Ki (VIM-4 [8]): > 5 mM
Binding by 1H CPMG NMR (VIM-4 [9]): weak binding
Hydrolysis of avibactam without enzyme [10]: did not lead to detectable product levels
Ki (IMP-1 [11]): 1.7 mM and ~1.7 mM
Binding by 1H CPMG NMR (VIM-2 [12]): weak binding
Avibactam hydrolysis observed by NMR (VIM-4 [13]): more efficient hydrolysis
Avibactam hydrolysis observed by NMR (NDM-1 [14]): more efficient hydrolysis
Ki (FEZ-1 [15]): 2.3 mM and ~2.3 mM
Reduction of the avibactam MS signal after VIM-4-catalyzed hydrolysis (VIM-4 [16]): ~50 fold
Ki (VIM-2 [17]): > 5 mM

CC(C)(O/N=C(\C(=O)N[C@@H]1C(=O)N2C(C(=O)[O-])=C(C[n+]3ccccc3)CS[C@H]12)c1csc(N)n1)C(=O)O [ceftazidime]
Km [18]: > 30 µM
Km (NDM-1 [19]): 180 µM
Km (SPM-1 [20]): 46 µM
Km (VIM-2 [21]): 72 µM
Km (IMP-1 [22]): 46 µM
Km (FEZ-1 [23]): > 1000 µM

FEZ-1 (Fluoribacter gormanii)
kcat/Km [24]: 70 ± 15 M⁻¹ s⁻¹
kcat/Km ([24]; pH 7.5, 30.0 °C): 70 ± 15 M⁻¹ s⁻¹
